Data set [1] concerns neuroblastoma B103 cell line. Description: MTT test: apoptosis induced by staurosporin. The class given is cell-based. Conditions: B103 cells, staurosporin-only control = 100%. How it is done:
(§1) 5×10^3 cells of neuroblastoma B103 cell line (donated by Dr. David Schubert of the Salk Institute, USA) were placed in each well of a 96-well plate with 100 μl of DMEM (Dulbecco's Minimal Eagle's Medium) containing 10% fetal bovine serum (FBS), and cultured at 37° C. under 8% CO2 for 1 day. After changing the medium to serum-free DMEM, the cells were treated with various concentrations of test compounds and, 1 hour later, with 25 μM of beta-amyloid (25-35 peptide; US peptide, CA, USA). The cells were cultured at 37° C. for 18 hours, treated with 15 μl of MTT solution [10 mg/ml solution of 3-(4,5-dimethyl-2-thiazolyl)-2,5-diphenyl-2H-tetrazolium bromide in phosphate buffered saline (PBS)], and allowed to react at 37° C. for 3 to 4 hours. 100 μl of lysis buffer (10% SDS, 50% dimethylformamide, pH 4.7) was added to the wells, and the cells were cultured overnight at room temperature and relative humidity of 90%. Optical density (OD) of each well was measured at […] and 630 nm, respectively, using a scanning multiwell spectrophotometer, and then the OD value at 630 nm was subtracted from that at 570 nm.
Further, in order to examine whether compounds originating from ginseng can block apoptosis, […], and the survival rates of the neural cells were determined.

In data set [2] the test system is neuroblastoma B103 cell line. Description: MTT test: preventing the toxicity of beta-amyloid. The class given is cell-based. Conditions: B103 cells, beta-amyloid-only control = 100%. The procedure: In order to examine the activities of the compounds prepared in the Reference Example in preventing the toxicity of beta-amyloid, the MTT analysis (Gillardon, F. et al., Brain Research. No. 6: pp. 169-172 (1996)) was carried out as follows.
as §1, with “After changing the medium to serum-free DMEM, the cells were treated with various concentrations of test compounds and, 1 hour later, with 25 μM of beta-amyloid (25-35 peptide; US peptide, CA, USA).” left out
Setting the survival rate of the control group treated only with beta-amyloid as 100%, relative survival rates of the experimental groups treated with compound Y, ginsenosides Mc and Rc, PPD and PPT, respectively, were calculated, and the results are shown in Table 2 and FIG. 1. The obtained values were statistically significant.
When the same procedure as above was repeated except that the cells were treated simultaneously with the test compound and beta-amyloid, or treated with the test compound one hour after the beta-amyloid treatment, the results were almost the same as above.
Further, in order to assess the concentration-dependent activity of a test compound, the above procedure was repeated using PPT at concentrations ranging from […].
(Formazan colour is commonly taken as a measure of viable cells.)

The next data set concerns mice. Description: Morris water maze test (spatial learning). The class given is in vivo. Conditions: versus control group, FIG. 6.
The nature of data set [3]: Degree of BBB penetration: pharmacokinetics in blood and brain by LC-mass. The class given is in vivo, Sprague-Dawley rat. Conditions: SD rat; for migration into the brain (in words): 1 mg/kg intravenous Rg1 or Rb1. How it is done: A male Sprague-Dawley rat (weight 250-300 g) was lightly anesthetized with ether and catheterized with a polyethylene tube (PE-50) in the femoral artery and vein. After the rat recovered, a saline solution containing 1 mg/kg of Rg1 or Rb1 was administered into the femoral vein through the intravenous bolus administration. 300 μl blood samples were collected from the rat's femoral artery at 2, 5, 10, 15, 20, 30, 45 and 60 minutes after the administration. Each blood sample was centrifuged to obtain 100 μl of plasma. A plasma sample was prepared as in (2) of step 1 with the plasma. 20 μl of the sample was injected into the LC mass system as in Step 1, and ginsenosides Rg1 and Rb1 and their metabolites PPD and PPT were quantified. The plasma concentrations of ginsenosides and their metabolites were calculated in the forms of weight per plasma (ml) (in case of ginsenosides) or peak size (in case of metabolites).
Immediately after collecting the blood samples, the rats were decapitated and brain tissues were obtained therefrom. The tissues were rinsed with ice-cooled saline, placed in a 15 ml Falcon tube and then weighed precisely. Acetonitrile was added to the tube in an amount twice the weight of the tissue sample, and the sample was homogenized using a tissue homogenizer (Ultra-Turrax T25, JANKE&KUNKEL IKA-Labortechnik). The mixture was centrifuged at 3,000 rpm for 20 minutes. 300 μl of the resulting supernatant was dried in a speed-vac, and 300 μl of acetonitrile was added thereto. 20 μl of the resulting mixture was injected in the LC mass system as in Step 1 to quantify the concentrations of ginsenosides and their metabolites in the brain, and the measured concentrations were represented by weight per gram of the brain tissue or peak size.
Separation and detection conditions for ginsenosides Rg1 and Rb1 were as described in Step 1, and those for metabolites PPD and PPT were as follows:
The transfer rate of the substances into the brain (Kbrain) can be represented by the ratio of the mean concentration of the substance in the brain (Cmean,brain) to the mean plasma concentration (Cmean,plasma) as in Equation 1. [formula]
The mean concentration of a substance can be determined by dividing the area under the concentration-time curve corresponding to time 0 to t by t and, accordingly, the transfer rate of the substance into the brain (Kbrain) can be calculated by Equation 2 shown below. [formula]

Where [4] appears, read: test compound 1 μM + 0.1 μM staurosporin.
[5] abbreviates: test compound 1 μM alone, without staurosporin.
The mark [6] stands for this setting: test compound 1 μM + 25 μM beta-amyloid (25-35), 18 hours.
The mark [7] stands for this setting: test compound 1 μM alone, without beta-amyloid.

As to `CC(C)=CCC[C@](C)(O[C@@H]1O[C@H](CO[C@@H]2O[C@@H](CO)[C@H](O)[C@H]2O)[C@@H](O)[C@H](O)[C@H]1O)[C@H]1CC[C@]2(C)[C@@H]1[C@H](O)C[C@@H]1[C@@]3(C)CC[C@H](O)C(C)(C)[C@@H]3CC[C@]12C` [Ginsenoside Mc], the “Survival rate (%)” value in data set [1] (setting [4]) is 101.1 ± 2.7%; in data set [1] (setting [5]), 178.6 ± 6.3%; in data set [2] (setting [6]), 106.1 ± 2.4%; in data set [2] (setting [7]), 148.0 ± 6.3%. Besides, in the data set on mice, the “time to reach the platform” value is recorded as “much shorter time to reach the platform”.

As for `CC(C)=CCC[C@](C)(O[C@@H]1O[C@H](CO[C@@H]2O[C@@H](CO)[C@H](O)[C@H]2O)[C@@H](O)[C@H](O)[C@H]1O)[C@H]1CC[C@]2(C)[C@@H]1[C@H](O)C[C@@H]1[C@@]3(C)CC[C@H](O[C@@H]4O[C@H](CO)[C@@H](O)[C@H](O)[C@H]4O[C@@H]4O[C@H](CO)[C@@H](O)[C@H](O)[C@H]4O)C(C)(C)[C@@H]3CC[C@]12C` [Ginsenoside Rc], the “Survival rate (%)” value in data set [1] (setting [4]) was 97.0 ± 4.8%; in data set [1] (setting [5]) it was 191.4 ± 4.9%; in data set [2] (setting [6]), 106.0 ± 0.9%; in data set [2] (setting [7]), 161.0 ± 4.9%; in data set [2] (test compound 10 μM + 25 μM beta-amyloid (25-35), 18 hours), 107.2 ± 1.9%; in data set [2] (test compound 10 μM alone, without beta-amyloid), 126.7 ± 3.7%. Also, the “time to reach the platform” value with mice is listed as “much shorter time to reach the platform”.

As for `CC(C)=CCC[C@](C)(O[C@@H]1O[C@H](CO[C@@H]2O[C@H](CO)[C@@H](O)[C@H](O)[C@H]2O)[C@@H](O)[C@H](O)[C@H]1O)[C@H]1CC[C@]2(C)[C@@H]1[C@H](O)C[C@@H]1[C@@]3(C)CC[C@H](O[C@@H]4O[C@H](CO)[C@@H](O)[C@H](O)[C@H]4O[C@@H]4O[C@H](CO)[C@@H](O)[C@H](O)[C@H]4O)C(C)(C)[C@@H]3CC[C@]12C` [ginsenoside Rb1, reference compound], the “migration into the brain (in words)” value in data set [3] was “do not migrate into the brain”. For the same compound, the “concentration in the brain as compared with that in the plasma” value in data set [3] (1 mg/kg intravenous bolus, until 60 min., FIG. 11b) is given as “below 5.8%”.

Regarding `CC(C)=CCC[C@](C)(O[C@@H]1O[C@H](CO)[C@@H](O)[C@H](O)[C@H]1O)[C@H]1CC[C@]2(C)[C@@H]1[C@H](O)C[C@@H]1[C@@]3(C)CC[C@H](O)C(C)(C)[C@@H]3[C@@H](O[C@@H]3O[C@H](CO)[C@@H](O)[C@H](O)[C@H]3O)C[C@]12C` [ginsenoside Rg1, reference compound], in data set [3], the “migration into the brain (in words)” value is recorded as “do not migrate into the brain”. Besides, in data set [3] (1 mg/kg intravenous bolus of the ginsenoside, FIG. 11a), the “concentration in the brain” value is on record as “below the detectable level”.
